# Test results reported in patent US20210371351A1, “MIXTURES COMPRISING AT LEAST TWO DIFFERENT NITRIFICATION INHIBITORS SELECTED FROM 2-(3,4-DIMETHYL-1H-PYRAZOL-1-YL)SUCCINIC ACID (DMPSA), 3,4-DIMETHYL PYRAZOLIUM GLYCOLATE (DMPG) AND OTHER COMPOUNDS” (BASF SE, priority 2017, published 2021).
# Assays:
# nitrification [1] = experiment: Example 5: soil incubation in bottles with ammonium sulfate, DMPSA, DCD or mixtures, 5 to 15° C., 0 up to 56 days; recovery NH4 (RE/RC), net recovery NH4 (NE/NC), inhibition of NO3 formation (IE/IC, Böhland; Colby); parameters: unit not given here
# Experimental: 100 g soil is filled into 500 ml plastic bottles (e.g. soil sampled from the field) and is moistened to 50% water holding capacity. The soil is incubated at 20° C. for two weeks to activate the microbial biomass. 1 ml test solution, containing the compositions and mixtures of the invention in the appropriate concentration, or DMSO and 5 to 10 mg nitrogen in the form of ammoniumsulfate-N is added to the soil and everything mixed well. Bottles are capped but loosely to allow air exchange. The bottles are then incubated at 5 to 15° C. for 0 up to 56 days.
# For analysis, 300 ml of a 1% K2SO4-solution is added to the bottle containing the soil and shaken for 2 hrs in a horizontal shaker at 150 rpm. Then the whole solution is filtered through a Macherey-Nagel Filter MN 807′/. Ammonium and nitrate content is then analyzed in the filtrate in an autoanalyzer at 550 nm (Merck, AA11).
# The Böhland equation is described in Böhland, H., et al. (1973) “Mittel zur Hemmung bzw. Regelung der Nitrifikation von Ammoniumstickstoff in Kulturböden”. DDR-Wirtschaftspatent (Economic patent of the German Democratic Republic) C 05c 169 727. Cited by: Peschke, H. (1985) “Zur Bewertung der inhibierenden Wirkung von Nitrifiziden im Boden”, Zbl. Mikrobiol. 140, pp. 583-588.
# nitrification [2] = experiment: Example 3: soil column trial (soil Limburgerhof) with ammonium sulfate, DMPP, DMPSA or DMPP+DMPSA; leaching at 5° C., incubation 10 d or 20 d at 15° C.; NH4-N/NO3-N, % inhibition of NO3-N formation (Böhland), Colby; conditions: 0.05% DMPP, 0.45% DMPSA
# Excerpt: The effect on NH4^+ retention and NH4^+ to NO3^− ratios in the soil after fertilization of ammonium sulfate with the addition of DMPP, DMPSA or a combination of DMPP and DMPSA was investigated in column trials simulating climatic conditions of spring time in central Europe. Soil Limburgerhof (pH(CaCl2) 6.8, texture: 73% sand; 24% silt, 3% clay) was filled dry into a glass column with an inner width of 4 cm. At the bottom 0.4 g cotton wool was placed above which a frit (Co. Robu, pore size 1) was placed above which 100 g of 2 mm sieved soil Limburgerhof was layered. The soil height in the column was about 7 cm. Before fertilization the soil was brought to about 60% of its water holding capacity (WHC) be adding 14.4 mL of deionized water. Per column 10 mg NH4—N as ammonium sulfate was fertilized or not (control) together or not with 0.05% DMPP (DMPP obtained from BASF SE), 0.45% DMPSA (DMPSA used as free acid obtained from BASF SE) and 0.05% DMPP plus 0.45% DMPSA (% of nitrification inhibitor w/w of NH4—N). Every treatment was replicated three times.
# After fertilization, 50 mL demineralized water was carefully and slowly placed on top of each column which equals about 31 mm precipitation. After 24 h the eluate was collected and by sucking off the soil to bring it back to about 60% of its WHC. All handlings including soil preparation, fertilization and the temperature of the water for both wetting the soil and the artificial precipitation up to the collection of the eluate 24 h after fertilization was performed at 5° C.
# Thereafter, the columns were incubated for 10 d or 20 d at constantly 15° C. in an incubator. After 7 d and 14 d, water was added by weight where needed to bring the soils uniformly to 60% WHC. After 10 d or 20 d, the soil was removed from the columns and extracted with 1% (w/w) K2SO4 solution by shaking for 2 h at room temperature. The filtrated extract was then analyzed for NH4^+ and NO3 colorimetrical by an autoanalyzer.
# To calculate the inhibition of nitrate formation by the nitrification inhibitors during the incubation, the above-mentioned Böhland equation was used. To examine synergistic effects of the combination of DMPP+DMPSA the formula by Colby (Colby, S.R., “Calculating synergistic and antagonistic responses of herbicide Combinations”, Weeds, 15, pp. 20-22, 1967) was used. To determine background levels of NH4+ to NO3−, every treatment was also extracted immediately after fertilization and after leaching prior to the further incubation at 15° C. for 10 d or 20 d.
# [3] = 10 days of incubation at 15° C.
# [4] = 20 days of incubation at 15° C.
substance,measurement,setting,value
"2-(3,4-dimethyl-1H-pyrazol-1-yl)succinic acid and/or 2-(4,5-dimethyl-1H-pyrazol-1-yl)succinic acid [DMPSA]","IE (inhibition of NO3 formation, Böhland)","nitrification [1]; IT10° C., DAT42, % a.i. DMPSA 0.50, DCD 0.08",52
same,"IE (inhibition of NO3 formation, Böhland)","nitrification [1]; IT10° C., DAT56, % a.i. DMPSA 0.25, DCD 1",65
same,"IE (inhibition of NO3 formation, Böhland)","nitrification [1]; IT10° C., DAT56, % a.i. DMPSA 0.25, DCD 3",65
same,"IE (inhibition of NO3 formation, Böhland)","nitrification [1]; IT10° C., DAT56, % a.i. DMPSA 0.30, DCD 0.05",47
same,"IE (inhibition of NO3 formation, Böhland)","nitrification [1]; IT10° C., DAT56, % a.i. DMPSA 0.50, DCD 0.08",47
same,IE inhibition of NO3 formation,"nitrification [1]; IT15° C., DAT10, % a.i.: DMPSA 0.5, DCD 1, DMPSA + DCD 0.5 + 1 (1:2)",50
same,IE inhibition of NO3 formation,"nitrification [1]; IT15° C., DAT10, % a.i.: DMPSA 0.5, DCD 3, DMPSA + DCD 0.5 + 3 (1:6)",50
same,IE inhibition of NO3 formation,"nitrification [1]; IT15° C., DAT20, % a.i.: DMPSA 0.5, DCD 1, DMPSA + DCD 0.5 + 1 (1:2)",74
same,IE inhibition of NO3 formation,"nitrification [1]; IT15° C., DAT20, % a.i.: DMPSA 0.5, DCD 3, DMPSA + DCD 0.5 + 3 (1:6)",74
same,"IE (inhibition of NO3 formation, Böhland)","nitrification [1]; IT15° C., DAT28, % a.i. DMPSA 0.25, DCD 1",70
same,"IE (inhibition of NO3 formation, Böhland)","nitrification [1]; IT15° C., DAT28, % a.i. DMPSA 0.25, DCD 3",70
same,IE inhibition of NO3 formation,"nitrification [1]; IT15° C., DAT28, % a.i.: DMPSA 0.30, DCD 0.05, DMPSA + DCD 0.30 + 0.05 (6:1)",39
same,IE inhibition of NO3 formation,"nitrification [1]; IT15° C., DAT28, % a.i.: DMPSA 0.50, DCD 0.0125, DMPSA + DCD 0.50 + 0.0125 (40:1)",44
same,IE inhibition of NO3 formation,"nitrification [1]; IT15° C., DAT28, % a.i.: DMPSA 0.50, DCD 0.0143, DMPSA + DCD 0.50 + 0.0143 (35:1)",44
same,IE inhibition of NO3 formation,"nitrification [1]; IT15° C., DAT28, % a.i.: DMPSA 0.50, DCD 0.0167, DMPSA + DCD 0.50 + 0.0167 (30:1)",44
same,IE inhibition of NO3 formation,"nitrification [1]; IT15° C., DAT28, % a.i.: DMPSA 0.50, DCD 0.08, DMPSA + DCD 0.50 + 0.08 (6.25:1)",40
same,IE inhibition of NO3 formation,"nitrification [1]; IT15° C., DAT30, % a.i.: DMPSA 0.5, DCD 1, DMPSA + DCD 0.5 + 1 (1:2)",74
same,IE inhibition of NO3 formation,"nitrification [1]; IT15° C., DAT30, % a.i.: DMPSA 0.5, DCD 3, DMPSA + DCD 0.5 + 3 (1:6)",74
same,"IE (inhibition of NO3 formation, Böhland)","nitrification [1]; IT15° C., DAT42, % a.i. DMPSA 0.25, DCD 1",55
same,"IE (inhibition of NO3 formation, Böhland)","nitrification [1]; IT15° C., DAT42, % a.i. DMPSA 0.25, DCD 3",55
same,IE inhibition of NO3 formation,"nitrification [1]; IT15° C., DAT42, % a.i.: DMPSA 0.30, DCD 0.05, DMPSA + DCD 0.30 + 0.05 (6:1)",29
same,IE inhibition of NO3 formation,"nitrification [1]; IT15° C., DAT42, % a.i.: DMPSA 0.50, DCD 0.08, DMPSA + DCD 0.50 + 0.08 (6.25:1)",44
same,"IE (inhibition of NO3 formation, Böhland)","nitrification [1]; IT15° C., DAT56, % a.i. DMPSA 0.25, DCD 1",35
same,"IE (inhibition of NO3 formation, Böhland)","nitrification [1]; IT15° C., DAT56, % a.i. DMPSA 0.25, DCD 3",35
same,IE inhibition of NO3 formation,"nitrification [1]; IT15° C., DAT56, % a.i.: DMPSA 0.30, DCD 0.05, DMPSA + DCD 0.30 + 0.05 (6:1)",27
same,IE inhibition of NO3 formation,"nitrification [1]; IT15° C., DAT56, % a.i.: DMPSA 0.50, DCD 0.08, DMPSA + DCD 0.50 + 0.08 (6.25:1)",27
same,During incubation: % inhibition of NO3—N formation by NI acc. to Böhland equation (1973) (MV),nitrification [2]; [3],14.2%
same,Net NI effect % NH4 from fertilized NH4 (MV),nitrification [2]; [3],6.88%
same,Ratio NH4—N/NO3—N (MV),nitrification [2]; [3],0.53
same,Soil mg/100 g NH4—N (MV),nitrification [2]; [3],3.16 mg/100 g
same,Soil mg/100 g NO3—N (MV),nitrification [2]; [3],6.30 mg/100 g
same,During incubation: % inhibition of NO3—N formation by NI acc. to Böhland equation (1973) (MV),nitrification [2]; [4],4.8%
same,Net NI effect % NH4 from fertilized NH4 (MV),nitrification [2]; [4],1.79%
same,Ratio NH4—N/NO3—N (MV),nitrification [2]; [4],0.02
same,Soil mg/100 g NH4—N (MV),nitrification [2]; [4],0.19 mg/100 g
same,Soil mg/100 g NO3—N (MV),nitrification [2]; [4],9.60 mg/100 g
